Results taken from patent publication US6806285B1, “5-Hydroxyl indole derivatives for treating glaucoma” (Alcon, Inc., priority 2000, dated 2004).

Key:
[1] = Solution stability, accelerated stress test; assay type: physicochemical; settings: 14 days; for Predicted Shelf Life: 25° C., loss of 10% compound (T90), extrapolated from 75° C., pH 5 0.025 M sodium citrate buffer, HPLC
Method: The solution stability of the example compounds were assessed using an accelerated stress test. The compound was dissolved in pH 5, 0.025 M sodium citrate buffer (5˜15 μg/mL). In duplicate, 2 mL of each solution in a glass vial was heated at 75° C. for 14 days. Samples were analyzed periodically using HPLC and % degradation was calculated for the sample. The predicted shelf life (25° C.) was based on the loss of 10% compound (T90) and the fact that the rate of degradation for a first order reaction decreased 50% for every 10° C. drop in temperature.

[2] = test system: hypertensive cynomolgus monkeys; settings: dose 250 μg, cited from earlier work

| Structure (SMILES) | Predicted Shelf Life [1] [months] | Stability relative to the parent compound α-methylserotonin (oxidative degradation and ester hydrolysis) ([1]; stress conditions: pH 5 citrate buffer, 75° C.) | Percent IOP Reduction ± SEM, 1 hour after dose [2] [%] | Percent IOP Reduction ± SEM, 3 hours after dose [2] [%] | Percent IOP Reduction ± SEM, 6 hours after dose [2] [%] |
| --- | --- | --- | --- | --- | --- |
| CCC(=O)Oc1ccc2[nH]cc(CC(C)N)c2c1 (stereo not drawn) [Example 1, Propionic acid 3-(2-aminopropyl)1H-indol-5-yl ester] | 1.32 | did not provide an increase in the stability of the parent compound |  |  |  |
| CC(N)Cc1c[nH]c2ccc(OC(=O)C(C)C)cc12 (stereo not drawn) [Example 2, Isobutyric acid 3-(2-aminopropyl)-1H-indol-5yl ester] | 3.36 |  |  |  |  |
| CC(N)Cc1c[nH]c2ccc(OC(=O)C(C)(C)C)cc12 (stereo not drawn) [Example 3, 2,2-Dimethyl-propionic acid 3-(2-aminopropyl)-1H-indol-5yl ester] | 11.3 |  |  |  |  |
| CC(N)Cc1c[nH]c2ccc(OC(=O)C3CC3)cc12 (stereo not drawn) [Example 4, Cyclopropanecarboxylic acid 3-(2-aminopropyl)-1H-indol-5yl ester] | 5.81 |  |  |  |  |
| NCCc1c[nH]c2ccc(O)cc12 [Serotonin] |  |  | 13.3 ± 5.31 | 18.0 ± 5.12 | 2.0 ± 7.39 |
| CC(N)Cc1c[nH]c2ccc(O)cc12 (stereo not drawn) [α-methylserotonin, 3-(2-aminopropyl)-1H-indol-5-ol] | 2.6 |  | 14.2 ± 4.39 | 25.8 ± 5.16 | 30.8 ± 7.72 |
